Key:
Experiment in all cases: Ba/F3 cell drug screening, Cell Titer Glo
Format in all cases: cell-based
EGFR Ex19del G724S = molecular target: T1, EGFR Ex19del G724S (Homo sapiens, UniProt P00533, DEL746-750/G724S); settings: Ba/F3 cells expressing EGFR Ex19del G724S; 72 hours
T1 construct: expressed in transfected cells; host or cells: Ba/F3 (retroviral transduction, pBabe-Puro based vectors)
In short: (§1)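 IC50 values come from luminescent ATP readout (CellTiter-Glo) after 72 h drug exposure of Ba/F3 cells engineered to express mutant EGFR and grown with 1 ng/ml EGF. Signals were DMSO-normalized and fitted with a variable-slope curve.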

EGFR S768I V774M = molecular target: T2, EGFR S768I V774M (Homo sapiens, UniProt P00533, S768I/V774M); settings: Ba/F3 cells expressing EGFR S768I V774M; 72 hours
T2 construct: host or cells: Ba/F3 (retroviral transduction, pBabe-Puro based vectors)
In short: as §1

EGFR D770insNPG = molecular target: T3, EGFR D770insNPG (Homo sapiens, UniProt P00533, INS770NPG); settings: Ba/F3 cells expressing EGFR D770insNPG; 72 hours
T3 construct: expressed in transfected cells; host or cells: Ba/F3 (retroviral, pBabe-Puro based vector)
In short: as §1

EGFR H773insNPH = molecular target: T4, EGFR H773insNPH (Homo sapiens, UniProt P00533, INS773NPH); settings: Ba/F3 cells expressing EGFR H773insNPH; 72 hours
T4 construct: expressed in transfected cells; host or cells: Ba/F3 (retroviral, pBabe-Puro based vector)
In short: as §1

EGFR R776H = molecular target: T5, EGFR R776H (Homo sapiens, UniProt P00533, R776H); settings: Ba/F3 cells expressing EGFR R776H; 72 hours
T5 construct: host or cells: Ba/F3 (retroviral transduction, pBabe-Puro based vectors)
In short: as §1

EGFR L858R T790M V843I = molecular target: T6, EGFR L858R T790M V843I (Homo sapiens, UniProt P00533, L858R/T790M/V843I); settings: Ba/F3 cells expressing EGFR L858R T790M V843I; 72 hours
T6 construct: expressed in transfected cells; host or cells: Ba/F3 (retroviral transduction, pBabe-Puro based vectors)
In short: as §1

EGFR Ex19del T790M = molecular target: T7, EGFR Ex19del T790M (Homo sapiens, UniProt P00533, DEL746-750/T790M); settings: Ba/F3 cells expressing EGFR Ex19del T790M; 72 hours
T7 construct: expressed in transfected cells; host or cells: Ba/F3 (retroviral transduction, pBabe-Puro based vectors)
In short: as §1

EGFR Ex19del/T790M/L792H = molecular target: T8, EGFR Ex19del/T790M/L792H (Homo sapiens, UniProt P00533, DEL746-750/L792H/T790M); settings: Ba/F3 cells expressing EGFR Ex19del/T790M/L792H; 72 hours
T8 construct: expressed in transfected cells; host or cells: Ba/F3 (retroviral transduction, pBabe-Puro based vectors)
In short: as §1

EGFR I740dupIPVAK = settings: Ba/F3 cells expressing EGFR I740dupIPVAK; 72 hours
In short: as §1

EGFR G724S T790M = molecular target: T9, EGFR G724S T790M (Homo sapiens, UniProt P00533, G724S/T790M); settings: Ba/F3 cells expressing EGFR G724S T790M; 72 hours
T9 construct: expressed in transfected cells; host or cells: Ba/F3 (retroviral transduction, pBabe-Puro based vectors)
In short: as §1

EGFR N771dupN = molecular target: T10, EGFR N771dupN (Homo sapiens, UniProt P00533, DUP771-771); settings: Ba/F3 cells expressing EGFR N771dupN; 72 hours
T10 construct: expressed in transfected cells; host or cells: Ba/F3 (retroviral, pBabe-Puro based vector)
In short: as §1

EGFR Ex19del L718V = molecular target: T11, EGFR Ex19del L718V (Homo sapiens, UniProt P00533, DEL746-750/L718V); settings: Ba/F3 cells expressing EGFR Ex19del L718V; 72 hours
T11 construct: expressed in transfected cells; host or cells: Ba/F3 (murine pro-B cells), retroviral transduction with pBabe-Puro based vectors
In short: as §1

EGFR Ex19del/C797S = molecular target: T12, EGFR Ex19del/C797S (Homo sapiens, UniProt P00533, C797S/DEL746-750); settings: Ba/F3 cells expressing EGFR Ex19del/C797S; 72 hours
T12 construct: expressed in transfected cells; host or cells: Ba/F3 (murine pro-B cells), retroviral transduction with pBabe-Puro based vectors
In short: as §1

EGFR Ex19del/L792H = molecular target: T13, EGFR Ex19del/L792H (Homo sapiens, UniProt P00533, DEL746-750/L792H); settings: Ba/F3 cells expressing EGFR Ex19del/L792H; 72 hours
T13 construct: expressed in transfected cells; host or cells: Ba/F3 (retroviral transduction, pBabe-Puro based vectors)
In short: as §1

EGFR L747S = molecular target: T14, EGFR L747S (Homo sapiens, UniProt P00533, L747S); settings: Ba/F3 cells expressing EGFR L747S; 72 hours
T14 construct: expressed in transfected cells; host or cells: Ba/F3 (retroviral transduction, pBabe-Puro based vectors)
In short: as §1

EGFR L861Q = molecular target: T15, EGFR L861Q (Homo sapiens, UniProt P00533, L861Q); settings: Ba/F3 cells expressing EGFR L861Q; 72 hours
T15 construct: expressed in transfected cells; host or cells: Ba/F3 (retroviral, pBabe-Puro based vector)
In short: as §1

`C=CC(=O)N1CCC(Oc2cc3c(Nc4ccc(Cl)c(Cl)c4F)ncnc3cc2OC)CC1` [Poziotinib] was tested, and the “Response of Cells Comprising PACC EGFR Mutations to Second-Generation TKIs” value (EGFR Ex19del G724S) was 0.4952, the “Response of Cells Comprising PACC EGFR Mutations to Second-Generation TKIs” value (EGFR S768I V774M) was 0.1181 and the “Response of Cells Comprising Ex20ins EGFR Mutations to Poziotinib” value (shortened to “Response … to Poziotinib”) (EGFR D770insNPG) was 0.2889. For the same molecule, the “Response … to Poziotinib” value (EGFR H773insNPH) was 0.3855, the “Response of Cells Comprising PACC EGFR Mutations to Second-Generation TKIs” value (EGFR R776H) was 0.01644 and the “Response of Cells Comprising T790M-like-S EGFR Mutations to Second-Generation TKIs” value (EGFR L858R T790M V843I) was 5.408. For the same molecule, the “Response of Cells Comprising T790M-like-S EGFR Mutations to Second-Generation TKIs” value (EGFR Ex19del T790M) was 3.423, the “Response of Cells Comprising T790M-like-R EGFR Mutations to Second-Generation TKIs” value (EGFR Ex19del/T790M/L792H) was 2157 and the “Response of Cells Comprising PACC EGFR Mutations to Second-Generation TKIs” value (EGFR I740dupIPVAK) was 0.02483. For the same molecule, the “Response of Cells Comprising T790M-like-R EGFR Mutations to Second-Generation TKIs” value (EGFR G724S T790M) was 2.924, the “Response … to Poziotinib” value (EGFR N771dupN) was 0.04003 and the “Response of Cells Comprising PACC EGFR Mutations to Second-Generation TKIs” value (EGFR Ex19del L718V) was 0.003363. The “Response of Cells Comprising PACC EGFR Mutations to Second-Generation TKIs” value (EGFR Ex19del/C797S) was 0.458, the “Response of Cells Comprising PACC EGFR Mutations to Second-Generation TKIs” value (EGFR Ex19del/L792H) was 0.3177 and the “Response of Cells Comprising PACC EGFR Mutations to Second-Generation TKIs” value (EGFR L747S) was 0.01641. The “Response of Cells Comprising Classical-Like EGFR Mutations to Second-Generation TKIs” value (EGFR L861Q) was 0.02499.

Reference: US20240108623A1, “METHODS OF TREATING CANCER WITH POZIOTINIB” (BOARD OF REGENTS, THE UNIVERSITY OF TEXAS SYSTEM, priority 2021, published 2024)
